The results in this text go back to article PMC3253737 (Journal of Natural Products, 2011).

A word on the IC50: it is the midpoint of a concentration-inhibition curve. A higher IC50 goes with weaker potency.

A short description of one data set: MTS viability. Type of data set: cell-based. Particulars: human (JMAR, MDA-1986, SKMEL-28, MRC-5) and mouse (B16F10).
In data set [1] the test system is HNSCC (JMAR and MDA-1986), melanoma (B16F10 and SKMEL-28), and normal fetal fibroblast (MRC-5) cells. Briefly: MTS viability. Type of data set: cell-based.
Setting [2] is: Cytotoxicity IC50 (inactive for all cell lines used), all cell lines used (B16F10, SKMEL-28, JMAR, MDA-1986, MRC-5).

Like-named read-outs stand apart in the source and are kept apart here.

In the data set “MTS viability”, `CC1=C(CO)C(=O)O[C@@H]([C@@H](C)[C@H]2CC[C@H]3[C@@H]4C[C@H]5O[C@]56[C@@H](O)C=CC(=O)[C@]6(CO)[C@H]4CC[C@]23C)C1` [Compound 1, 19-hydroxywithaferin A] gave an IC50 of 0.067 to 9.3 µM.

`CC1=C(C)C(=O)O[C@@H]([C@@H](C)[C@H]2CC[C@H]3[C@@H]4C[C@H]5O[C@]56[C@@H](O)C=CC(=O)[C@]6(CO)[C@H]4CC[C@]23C)C1` [Compound 2, 27-deoxy-19-hydroxywithaferin A] came in with an IC50 in “MTS viability” (cytotoxicity IC50) of 0.067 to 9.3 µM. With `CC1=C(CO)C(=O)O[C@@H]([C@@H](C)[C@H]2CC[C@H]3[C@@H]4CC=C5C=CC(=O)[C@]5(C)[C@H]4CC[C@]23C)C1` [Compound 6, A-nor-27-hydroxy-1-oxowitha-2,5,24-trienolide], in the data set “MTS viability”, the IC50 is > 10 µM. Turning to `CC1=C(CO)C(=O)O[C@@H]([C@@H](C)[C@H]2CC[C@H]3[C@@H]4C[C@H]5O[C@]56[C@@H](O)[C@@H](OS(=O)(=O)O)CC(=O)[C@]6(CO)[C@H]4CC[C@]23C)C1` [Compound 7, 2,3-dihydro-19-hydroxy-3β-O-sulfate-withaferin A], the IC50 in “MTS viability” (cytotoxicity IC50) was 0.067 to 9.3 µM. With `CC1=C(CO[C@@H]2O[C@H](CO)[C@@H](O[C@@H]3O[C@@H](C)[C@H](O)[C@@H](O)[C@H]3O)[C@H](O)[C@H]2O)C(=O)O[C@@H]([C@@H](C)[C@H]2CC[C@H]3[C@@H]4C[C@H]5O[C@]56[C@@H](O)C=CC(=O)[C@]6(C)[C@H]4CC[C@]23C)C1` [Compound 8, 27-O-[α-L-rhamnopyranosyl(1→4)]-β-D-glucopyranosyl-withaferin A], in the data set “MTS viability” (cytotoxicity IC50), the concentration for half-maximal inhibition (IC50) was 0.067 to 9.3 µM. In addition, in data set [1], the “cytotoxicity relative to the aglycone withaferin A (16)” value is listed as “less cytotoxicity”. With `CC1=C(CO[C@@H]2O[C@H](CO)[C@@H](O)[C@H](O)[C@H]2O)C(=O)O[C@@H]([C@@H](C)[C@H]2CC[C@H]3[C@@H]4C[C@H]5O[C@]56[C@@H](O)C=CC(=O)[C@]6(C)[C@H]4CC[C@]23C)C1` [Compound 15, 27-O-β-D-glucopyranosyl-withaferin A], the “cytotoxicity relative to the aglycone withaferin A (16)” value in data set [1] (MTS assay, comparison in words) is “less cytotoxicity”. `CO[C@H]1CC(=O)[C@]2(C)[C@H]3CC[C@]4(C)[C@@H]([C@H](C)[C@H]5CC(C)=C(CO)C(=O)O5)CC[C@H]4[C@@H]3C[C@H]3O[C@]32[C@H]1O` [Compound 17, 2,3-dihydro-3β-methoxywithaferin A]: in “MTS viability” (Cytotoxicity IC50 (inactive for all cell lines used)), the IC50 is > 10 µM. Turning to `CC1=C(CO)C(=O)O[C@@H]([C@@H](C)[C@H]2CC[C@H]3[C@@H]4C[C@H]5O[C@]56[C@@H](O)[C@@H](O)CC(=O)[C@]6(C)[C@H]4CC[C@]23C)C1` [Compound 18, viscosalactone B], the IC50 in “MTS viability” (setting [2]) is > 10 µM. For `CC1=C(CO)C(=O)O[C@@H]([C@@H](C)[C@H]2CC[C@H]3[C@@H]4C[C@H]5O[C@]56[C@@H](O)CCC(=O)[C@]6(C)[C@H]4CC[C@]23C)C1` [Compound 20, 2,3-dihydrowithaferin A], in the data set “MTS viability” (setting [2]), the 50% inhibitory concentration (IC50) is > 10 µM. Still for that read-out and setting: under `CC1=C(CO)C(=O)O[C@@H]([C@@H](C)[C@H]2CC[C@H]3[C@@H]4C[C@@H]5O[C@@H]6CC(=O)[C@](C)([C@H]4CC[C@]23C)[C@@]5(O)[C@H]6O)C1` [Compound 21, 3α,6α-epoxy-4β,5β,27-trihydroxy-1-oxowitha-24-enolide] stands > 10 µM.
